According to US12679878B2, “CRF2 receptor agonists and their use in therapy” (SANOFI, priority 2020, dated 2026):
In brackets after ≈: the same amount, converted by molar mass. Read-outs that look alike come from different tables or passages of the source. Starred links: 1 amine or outer side, 2 acyl side, 3 side chain; linkers in the order of their positions; H or OH if unused. Non-standard residues stand in square brackets, D forms with d. Residues, ends and D or L forms follow the SMILES beside them. Groups on a side chain read outwards from the residue. *: point of attachment. C20 diacid = O=C(O)CCCCCCCCCCCCCCCCCCC(=O)*; C18 diacid = O=C(O)CCCCCCCCCCCCCCCCC(=O)*; γGlu = O=C(O)[C@H](CCC(=O)[*:2])N[*:1]; AEEA = NCCOCCOCC(=O)O; Aib = CC(C)(N)C(=O)O

Assays:
human CRF2α receptor = molecular target: T1, human CRF2α receptor (Homo sapiens, UniProt Q13324); assay: cAMP agonism at human CRF2 α receptor in TeloHEAC cells (Example 7); format: cell-based; conditions: cAMP HTRF, TeloHEAC cells stably expressing human CRF2 α
T1 construct: expressed in transfected cells; host or cells: TeloHEAC
T1 sequence (Q13324 1-411): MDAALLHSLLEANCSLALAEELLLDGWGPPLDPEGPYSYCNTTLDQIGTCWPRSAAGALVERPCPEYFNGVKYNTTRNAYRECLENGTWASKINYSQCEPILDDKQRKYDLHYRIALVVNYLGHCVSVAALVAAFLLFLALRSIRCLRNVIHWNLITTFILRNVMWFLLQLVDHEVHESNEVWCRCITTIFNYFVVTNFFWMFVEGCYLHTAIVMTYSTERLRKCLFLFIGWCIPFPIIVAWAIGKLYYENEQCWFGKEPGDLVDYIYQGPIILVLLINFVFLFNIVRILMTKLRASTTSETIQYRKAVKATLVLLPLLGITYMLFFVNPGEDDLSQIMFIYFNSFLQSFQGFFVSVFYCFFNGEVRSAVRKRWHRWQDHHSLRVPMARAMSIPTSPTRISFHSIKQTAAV
Summary of the method: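 Percent activation was referenced to 1000 nM UCN2 (100%), and EC50 values taken as concentrations giving half of maximal response. The read-out was a homogeneous time-resolved fluorescence cAMP kit, fluorescence ratio 665/620 nm. Thawed cells (2000/well) saw compound for 30 min at RT in buffer with 2 mM IBMX and 0%/0.1% HSA.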

CRF1R receptor = molecular target: T2, CRF1R receptor (Homo sapiens, UniProt P34998); assay: cAMP activity at anti-target CRF1R, CRF1R-overexpression CHO cell line (Example 9); format: cell-based; conditions: for EC50: 0% HSA
T2 construct: host or cells: CHO-K1 clone 2
T2 sequence (P34998 24-415): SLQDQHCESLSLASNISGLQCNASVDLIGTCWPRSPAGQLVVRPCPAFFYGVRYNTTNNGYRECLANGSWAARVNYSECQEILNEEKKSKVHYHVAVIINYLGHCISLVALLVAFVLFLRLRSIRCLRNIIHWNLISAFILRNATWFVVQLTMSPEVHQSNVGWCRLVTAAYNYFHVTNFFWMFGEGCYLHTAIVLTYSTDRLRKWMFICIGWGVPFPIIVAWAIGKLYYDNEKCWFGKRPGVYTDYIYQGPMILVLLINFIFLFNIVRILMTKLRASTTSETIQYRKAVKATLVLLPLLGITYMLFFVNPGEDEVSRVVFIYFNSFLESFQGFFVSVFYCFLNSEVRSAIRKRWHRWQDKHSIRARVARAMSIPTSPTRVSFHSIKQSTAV
Summary of the method: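 cAMP accumulation was read by HTRF after 30 min at room temperature of compound treatment. Cells were cryopreserved CHO cells overexpressing CRF1R, plated at 2000/well in IBMX (2 mM)-containing HBSS/HEPES buffer with 0 or 0.1% HSA. Activity was normalized to 1000 nM UCN2 as 100%.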

[1] = Solubility in buffer systems by UPLC-UV (Example 13); format: physicochemical
Summary of the method: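 The supernatant was diluted 1:10 and quantified by UPLC-UV peak area against a reference standard curve, correcting for sequence-based extinction coefficients.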

[2] = Chemical stability, purity loss by UPLC-UV after 28 days at 40° C. vs 5° C., pH 4.5 acetate buffer (Example 12); format: physicochemical; conditions: 28 days 40° C. vs 5° C.; pH 4.5, 20 mM acetate buffer; 300 μM
Summary of the method: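 300 μM compound (purity-corrected) in 20 mM acetate buffer, pH 4.5, stored 28 days at 5 and 40° C. Purity by UPLC-UV as compound peak area over total peak area. Value is the purity difference between 5° C. and 40° C. samples, relative to the 5° C. purity, in percent.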

[3] = 0% HSA, read-out: EC50 [nM], 0% HSA
[4] = 0.1% HSA, read-out: EC50 [nM], 0.1% HSA
[5] = CRF1R-overexpression CHO cell line
[6] = CRF1R-overexpression CHO cell line, read-out: Emax (%)
[7] = pH 4.5, Solubility in Buffer B [mg/ml]
[8] = pH 7.4, Solubility in Buffer C [mg/ml]
[9] = pH 4.5, Solubility in Buffer A [mg/ml]

Row | Structure (SMILES) | EC50 (human CRF2α receptor; [3]) | EC50 (human CRF2α receptor; [4]) | EC50 (CRF1R receptor; [5]) | Emax (CRF1R receptor; [6]) | solubility at 1 h [1, 7] | solubility at 1 h [1, 8] | Relative purity loss [%] [2] | Emax (CRF1R receptor; CHO) | solubility at 1 h ([1]; Buffer B: 100 mM acetate buffer, pH 4.5, 2.7 mg/ml m-cresol, target 10 mg/ml, read-out: Solubility in Buffer B) | solubility at 1 h ([1]; Buffer C: 100 mM phosphate buffer, pH 7.4, target 10 mg/ml, read-out: Solubility in Buffer C) | solubility at 1 h [1, 9]
1 | CC[C@H](C)[C@H](N)C(=O)N[C@H](C(=O)N[C@@H](CC(C)C)C(=O)N[C@@H](CO)C(=O)N[C@@H](CC(C)C)C(=O)N[C@@H](CC(=O)O)C(=O)N[C@H](C(=O)N1CCC[C@H]1C(=O)N[C@H](C(=O)N[C@@H](CCCCN)C(=O)N[C@@H](CC(C)C)C(=O)N[C@@H](CCCCNC(=O)COCCOCCNC(=O)COCCOCCNC(=O)CC[C@H](NC(=O)CCCCCCCCCCCCCCCCC(=O)O)C(=O)O)C(=O)N[C@@H](CCCCN)C(=O)N[C@H](C(=O)N[C@@H](CC(C)C)C(=O)N[C@@H](CC(C)C)C(=O)N[C@@H](CCC(=O)O)C(=O)N[C@@H](CCC(N)=O)C(=O)N[C@@H](CCC(=O)O)C(=O)N[C@@H](CCCCN)C(=O)N[C@@H](CCC(N)=O)C(=O)N[C@@H](CCCCN)C(=O)N[C@@H](CCCCN)C(=O)N[C@@H](CCC(N)=O)C(=O)N[C@@H](CCCNC(=N)N)C(=O)N[C@@H](CCC(=O)O)C(=O)N[C@@H](CCC(N)=O)C(=O)N[C@@H](C)C(=O)N[C@@H](CCC(=O)O)C(=O)N[C@H](C(=O)N[C@@H](CC(N)=O)C(=O)N[C@@H](CCCCN)C(=O)N[C@@H](CCC(N)=O)C(=O)N[C@H](C(=O)N[C@@H](CC(C)C)C(=O)N[C@@H](C)C(=O)N[C@@H](CCC(N)=O)C(=O)N[C@H](C(N)=O)C(C)C)[C@@H](C)CC)[C@@H](C)O)[C@@H](C)CC)[C@@H](C)CC)C(C)C)C(C)C [compound 35] (H-IVLSLDVPIKLK([AEEA-AEEA-γGlu-C18 diacid])KILLEQEKQKKQREQAETNKQILAQV-NH2; N-terminus assumed) | 0.24 nM | 3.82 nM | > 1000 nM | 1.77% | > 8700 µg/mL | > 9800 µg/mL | 4.45% | – | – | – | –
2 | CC[C@H](C)[C@H](NC(=O)[C@H](CCC(N)=O)NC(=O)[C@H](CCC(=O)O)NC(=O)[C@H](CC(C)C)NC(=O)[C@H](CC(C)C)NC(=O)[C@H](CCC(N)=O)NC(=O)[C@H](CCCCN)NC(=O)[C@H](CC(N)=O)NC(=O)[C@H](CCCCN)NC(=O)[C@H](CCC(=O)O)NC(=O)[C@H](C)NC(=O)[C@H](CCC(N)=O)NC(=O)[C@H](CCC(N)=O)NC(=O)[C@H](CCCNC(=N)N)NC(=O)[C@H](CCC(=O)O)NC(=O)[C@H](CCCCN)NC(=O)[C@H](CCCCN)NC(=O)[C@H](CCC(N)=O)NC(=O)[C@H](CCCCN)NC(=O)[C@H](CCC(N)=O)NC(=O)[C@H](CCC(N)=O)NC(=O)[C@H](CCCCN)NC(=O)[C@H](CC(C)C)NC(=O)[C@H](CC(C)C)NC(=O)[C@@H](NC(=O)[C@H](CCC(N)=O)NC(=O)[C@H](CCCCNC(=O)COCCOCCNC(=O)COCCOCCNC(=O)CC[C@H](NC(=O)CCCCCCCCCCCCCCCCCCC(=O)O)C(=O)O)NC(=O)[C@@H](NC(=O)[C@H](CCCCN)NC(=O)[C@@H](NC(=O)[C@@H]1CCCN1C(=O)[C@@H](NC(=O)[C@H](CC(=O)O)NC(=O)[C@H](CC(C)C)NC(=O)[C@H](CO)NC(=O)[C@H](CC(C)C)NC(=O)[C@@H](NC(=O)[C@@H](N)Cc1ccccc1)[C@@H](C)O)C(C)C)[C@@H](C)O)[C@@H](C)CC)[C@@H](C)CC)C(N)=O [compound 59] (H-FTLSLDVPTKIK([AEEA-AEEA-γGlu-C20 diacid])QILLKQQKQKKERQQAEKNKQLLEQI-NH2) | 0.15 nM | 17.4 nM | – | – | – | – | 2.85% | 11.1% | > 9400 µg/mL | > 9100 µg/mL | –
3 | CC[C@H](C)[C@H](N)C(=O)N[C@H](C(=O)N[C@@H](CC(C)C)C(=O)N[C@@H](CO)C(=O)N[C@@H](CC(C)C)C(=O)N[C@@H](CC(=O)O)C(=O)N[C@H](C(=O)N1CCC[C@H]1C(=O)N[C@H](C(=O)N[C@@H](CCCCN)C(=O)N[C@@H](CC(C)C)C(=O)N[C@@H](CCCCNC(=O)COCCOCCNC(=O)COCCOCCNC(=O)CC[C@H](NC(=O)CCCCCCCCCCCCCCCCC(=O)O)C(=O)O)C(=O)N[C@@H](CCCCN)C(=O)N[C@H](C(=O)N[C@@H](CC(C)C)C(=O)N[C@@H](CC(C)C)C(=O)N[C@@H](CCCCN)C(=O)N[C@@H](CCC(N)=O)C(=O)N[C@@H](CCC(=O)O)C(=O)N[C@@H](CCCNC(=N)N)C(=O)N[C@@H](CCC(N)=O)C(=O)N[C@@H](CCCCN)C(=O)N[C@@H](CCCCN)C(=O)NC(C)(C)C(=O)N[C@@H](CCCNC(=N)N)C(=O)N[C@@H](CCC(=O)O)C(=O)N[C@@H](CCC(N)=O)C(=O)N[C@@H](C)C(=O)N[C@@H](CCC(=O)O)C(=O)N[C@@H](CCCCN)C(=O)N[C@@H](CC(N)=O)C(=O)N[C@@H](CCCCN)C(=O)N[C@@H](CCC(N)=O)C(=O)N[C@H](C(=O)N[C@@H](CC(C)C)C(=O)N[C@@H](C)C(=O)N[C@@H](CCC(N)=O)C(=O)N[C@H](C(N)=O)C(C)C)[C@@H](C)CC)[C@@H](C)CC)[C@@H](C)CC)C(C)C)C(C)C [compound 99] (H-IVLSLDVPIKLK([AEEA-AEEA-γGlu-C18 diacid])KILLKQERQKK[Aib]REQAEKNKQILAQV-NH2) | 0.06 nM | 1.6 nM | > 1000 nM | 3.25% | – | – | – | – | – | – | > 10000 µg/mL
4 | CC[C@H](C)[C@H](N)C(=O)N[C@H](C(=O)N[C@@H](CC(C)C)C(=O)N[C@@H](CO)C(=O)N[C@@H](CC(C)C)C(=O)N[C@@H](CC(=O)O)C(=O)N[C@@H](C(=O)N1CCC[C@H]1C(=O)N[C@H](C(=O)N[C@@H](CCCCN)C(=O)N[C@@H](CC(C)C)C(=O)N[C@@H](CCCCNC(=O)COCCOCCNC(=O)COCCOCCNC(=O)CC[C@H](NC(=O)CCCCCCCCCCCCCCCCC(=O)O)C(=O)O)C(=O)N[C@@H](CCC(N)=O)C(=O)N[C@H](C(=O)N[C@@H](CC(C)C)C(=O)N[C@@H](CC(C)C)C(=O)N[C@@H](CCCCN)C(=O)N[C@@H](CCC(N)=O)C(=O)N[C@@H](CCC(=O)O)C(=O)N[C@@H](CCCNC(=N)N)C(=O)N[C@@H](CCC(N)=O)C(=O)N[C@@H](CCCCN)C(=O)NC(C)(C)C(=O)N[C@@H](CCC(N)=O)C(=O)N[C@@H](CCCNC(=N)N)C(=O)N[C@@H](CCC(N)=O)C(=O)N[C@@H](CCC(N)=O)C(=O)N[C@@H](C)C(=O)N[C@@H](CCC(=O)O)C(=O)N[C@@H](CCCCN)C(=O)N[C@@H](CC(N)=O)C(=O)N[C@@H](CCCCN)C(=O)N[C@@H](CCC(N)=O)C(=O)N[C@H](C(=O)N[C@@H](CC(C)C)C(=O)N[C@@H](C)C(=O)N[C@@H](CCC(N)=O)C(=O)N[C@H](C(N)=O)C(C)C)[C@@H](C)CC)[C@@H](C)CC)[C@@H](C)CC)C(C)C)C(C)C [compound 135] (H-IVLSLD[dV]PIKLK([AEEA-AEEA-γGlu-C18 diacid])QILLKQERQK[Aib]QRQQAEKNKQILAQV-NH2; N-terminus assumed) | 0.04 nM | 1.48 nM | > 1000 nM | 28.4% | > 9200 µg/mL | 7500 µg/mL (≈ 1450 µM) | 3.55% | – | – | – | > 8400 µg/mL
